Test results as given in patent publication US6180624A (priority 1994, dated 2001).
Entries after “also recorded” stand apart in the source; their conditions may differ. Read-outs that look alike come from different tables or passages of the source.

Key:
[1] = system: nociceptive spinal reflexes; assay: animal or person; assay type: in vivo, rabbit (male New Zealand white); details: for ED50: Oryctolagus cuniculus, iv; for Effect on baseline, facilitation and wind-up responses: all three measures, FIG. 1, 2, 4
Procedure: Male New Zealand white rabbits (2.5-3.5 kg) were anaesthetised by an injection of 0.9% alphaxalone and 0.3% alphadolone (Saffan) directly into an ear vein. A cervical spinalization was performed and the cerebral cortex removed (decerebration) allowing anaesthesia to be discontinued. The left hind limb was shaved and a bipolar recording electrode inserted into the biceps femoris/semitendinous muscle. A noxious stimulus was applied to the area of the receptive field of the motor units to the skin of the foot. Single shocks (1 ms square pulses; 2 times threshold) were applied at a rate of 1 per minute. The conditioning stimulus was 20 of these impulses at a rate of 1 Hz, producing wind-up. The baseline parameters were again applied 20 seconds following the conditioning stimulus, the first of these stimuli is termed the facilitation of the baseline response. Injections were administered at 15 minute intervals, the first two always being the relevant drug vehicle. The time-course of events throughout the experiment was as shown below:
t=0 mins: Dose with vehicle (i.v.).
t=40 sec: Begin baseline stimulation (1 per minute).
t=10 mins: Conditioning stimulus applied (20 @ 1 Hz; wind-up).
t=10 mins 40 secs: Baseline stimulation resumes (Initial baseline response equates to facilitation).
t=15 mins: Dose with vehicle (i.v.).
t=25 mins: Conditioning stimulus applied.
t=25 mins 40 secs: Baseline stimulation resumes.
t=30 mins: Dose with test compound (i.v.).
t=40 mins: Conditioning stimulus applied.
t=40 mins 40 secs: Baseline stimulation resumes.
t=45 mins and every 15 minutes thereafter: Drug treatment (i.v.).
t=55 mins and every 15 minutes thereafter: Conditioning stimulus applied.
40 seconds after each conditioning stimulus baseline stimulation is resumed.
In each experiment the values obtained to the second vehicle were used as the control response. Each of the values obtained with drug treatment was expressed as a percentage of the control response. In the case of changes in baseline the last four values obtained prior to the conditioning response were taken to represent baseline activity. The effect of drug treatment was determined by comparing the baseline post-drug to the control baseline. Four rabbits were used in each experiment unless otherwise stated.

morphine-induced emesis = details: ferrets; cited from earlier work
formalin test = details: Garret et al.; cited from earlier work
[2] = system: phenylbenzoquinone-induced writhing; details: Garret et al.; cited from earlier work
[3] = baseline, i.v., decerebrate, spinalized rabbit, read-out: Approximate ID50, inhibition of baseline firing rate
[4] = facilitation, i.v., decerebrate, spinalized rabbit, read-out: Approximate ID50, inhibition of facilitation
[5] = wind-up, i.v., decerebrate, spinalized rabbit, read-out: Approximate ID50, inhibition of wind-up

COc1ccccc1CN[C@H]1CCCN[C@H]1c1ccccc1 [CP-99,994]
Facilitation of nociceptive spinal reflexes ([1]; CP-99,994 1-100 μg/kg i.v.): reduce facilitation of nociceptive spinal reflexes
ED50 [1, 3]: 0.05 mg/kg
ED50 [1, 4]: 0.008 mg/kg
ED50 [1, 5]: 0.01 mg/kg
Effect on baseline, facilitation and wind-up responses ([1]; i.v.): dose-dependent reduction in all three measures
Antagonism of the anti-nociceptive effects of morphine by CP-99,994 ([1]; rabbit, in vivo): not antagonised
Effect of CP-99,994 and morphine given together on the nociceptive reflex ([1]; rabbit, in vivo): appeared to be additive to those of morphine
Emetic response to morphine (morphine-induced emesis): attenuate the emetic response to morphine

COc1ccccc1CN[C@@H]1CCCN[C@@H]1c1ccccc1 [CP-100,263]
ED50 [1, 3]: > 1 mg/kg
ED50 [1, 4]: > 1 mg/kg
ED50 [1, 5]: > 1 mg/kg
Effect on baseline, facilitation and wind-up responses ([1]; i.v.): did not inhibit baseline, facilitation or wind-up responses; also recorded: lack of effect

CN1CC[C@]23c4c5ccc(O)c4O[C@H]2[C@@H](O)C=C[C@H]3[C@H]1C5 [Morphine, morphine]
Approximate ID50, inhibition of baseline firing rate ([1]; baseline, i.v., decerebrate, spinalized rabbit): 0.5 mg/kg
Approximate ID50, inhibition of facilitation ([1]; facilitation, i.v., decerebrate, spinalized rabbit): 0.5 mg/kg
Effect of morphine pre-treatment on CP-99,994 induced inhibition of each measure ([1]; morphine 0.5 mg/kg i.v. prior to CP-99,994 dose response curve, FIG. 3): failed to attenuate the CP-99,994 induced inhibition of each measure
Approximate ID50, inhibition of wind-up ([1]; wind-up, i.v., decerebrate, spinalized rabbit): 0.5 mg/kg

COc1ccccc1CC(=N)N1C[C@@H]2C(=O)CCC(c3ccccc3)(c3ccccc3)[C@@H]2C1 [RP 67,580]
Analgesia potency relative to morphine, formalin test (formalin test): potency comparable to that of morphine
Analgesia potency relative to morphine, phenylbenzoquinone-induced writhing [2]: potency comparable to that of morphine
